From US5599789A, “Method for the treatment of tumours and sarcomas” (Amrad Corporation Limited, priority 1991, dated 1997)
“Also recorded” adds a separate entry of the source.

Experiments:
[1] = test system: Ewing's Sarcoma cell line Al-5; assay: Colony formation in semi-solid agar cultures, Al-5 cells; format: cell-based, human; settings: Al-5, 1,000 cells, day 18
Procedure: (§1) Tumour cells obtained from biopsy and bone marrow specimens from patients with Ewing's Sarcoma were used in these studies. Approval for this project has been obtained from the Ethics Committee of the Royal Children's Hospital.
(§2) Single cell suspensions of tumour cells were obtained by mechanical disruption with an 18G or 21G needle or by pipetting, followed by incubation with dispase II (Boehringer) at a concentration of 1.2 units per ml for 10 minutes at 37° C. Prior to the addition to agar-medium the cells were vortexed gently to prevent clumping.
(§3) Clonal cell lines were grown in Iscove's Modified Dulbecco's Medium (IMDM) supplemented with 10% v/v foetal calf serum (FCS; CSL Limited, Melbourne, Australia) and were passaged either weekly or twice weekly. The characteristics of the Ewing Sarcoma cell lines used herein as described below:
(§4) Cell lines derived from the above primary cell lines (Al and Cu) are identified by an Arabic numeral (e.g. Al-1, Al-5, Al-8 or Cu-1).
(§5) The tumour cells were immobilised in 0.3% w/v agar containing Iscove's Modified Dulbecco's Medium (IMDM) and 10% v/v FCS. […] Cultures were scored for the presence of colonies (>40 cells) or clusters (<40 cells). The number of cells plated per culture ranged from 500 to 10,000 per ml. Colonies were counted on an Olympus dissecting microscope.
(§6) IL-1, IL-3, IL-4, IL-6, M-CSF, G-CSF, GM-CSF, Stem Cell Factor (SCF), TNFα, TGFα, TGFβ, EGF, aFGF, bFGF, NGF, IGF I, IGF II, PDGF and IFN-γ.
(§7) The recombinant human leukaemia inhibitory factor (LIF) was obtained from AMRAD Corporation Limited, Melbourne, Australia.

[2] = test system: Ewing's Sarcoma cell line Al (uncloned); assay: Colony formation in semi-solid agar cultures, Al (uncloned) cells; format: cell-based, human; settings: Al(uncloned), 5,000 cells, day 18
Procedure: as §1, §2, §3, §5, §6, §7

[3] = test system: Ewing's sarcoma cells (cell line A1-5) xenograft; assay: Ewing's tumour growth in SCID mice (subcutaneous xenograft); format: in vivo; settings: for Histology of subcutaneous tumours / Mitotic figures in tumours: hLIF 20 μg/day, 18 days; for Histology of subcutaneous tumours: Haematoxylin and Eosin; for Mitotic figures in tumours: histology
Description: Scid mice were obtained from the Animal Resource Centre, Willetton, Western Austarlia. All mice were aged 5-8 weeks, and were the same sex (male). Severe immunodeficiency (scid) is an autosomal recessive mutation that occurred spontaneously in the CB 17 (CB-IgH-1^b (N17F34)) congenic strain (16). In this congenic strain, the inbred BALB/c strain carried the immunoglobulin heavy-chain allele (Igh-I^b) of the C57BL/Ka strain. The SCID locus has been mapped to the centromeric end of chromosome 16 (16). These mice have defective T and B cell immunity, thus allowing for engraftment of many foreign cells. The mice were maintained in a laminar flow unit. In order to reduce the mortality from infection, the mice were kept in previously autoclaved cages, and autoclaved food and acidified water was used.
Recombinant human LIF (hLIF) derived from E. coli (Lot 122, AMRAD Corporation Limited) was used. Recombinant mouse LIF (Lot 308, AMRAD Corporation Limited) and PBS/1% w/v BSA were used as controls for the in vivo injections.
5-8×10^6 cloned Ewing's sarcoma cells (cell line A1-5), were injected subcutaneously into SCID mice. Tumours were scored after about 3 weeks in almost all mice at the injection site.
To examine the effect of heterologous and homologous LIF relative to the mammal being treated, a double blind controlled study was performed using tumour bearing SCID mice that were injected with hLIF (20 μg per mouse), mouse LIF (100 ng per mouse), or PBS/1% w/v BSA. The effective amount of hLIF was required to be higher than mLIF due to the presence of high circulating levels of a hLIF binding protein in mice (17). Eight mice were injected in each group with the majority of mice in the hLIF group surviving over 2 weeks (range 15-31 days). Tumour size was assessed using calibrated calibers, with measurements in the depth, length and width of the tumours. […] The trend for smaller tumours in hLIF treated mice was evident prior to the wasting syndrome. Although not wishing to limit the present invention to any one hypothesis as to mode of action, this phenomenon may be a manifestation of LIF toxicity in mice. In most cases, this trend was noticeable within 7 days after hLIF injections.
Histological examination of the subcutaneous tumours was performed on all mice, as was a full necropsy.

[4] = test system: Ewing's Sarcoma cell line Al-8; assay: Colony formation in semi-solid agar cultures, Al-8 cells; format: cell-based, human; settings: Al-8, 1,000 cells, day 18
Procedure: as §1, §2, §3, §4, §5, §6, §7

[5] = Toxicity of hLIF in mice, daily subcutaneous injections; format: in vivo
Procedure: A number of preliminary experiments were performed to determine the appropriate daily dose of hLIF in mice. Mice were injected with high doses of hLIF (100 microgram per mouse). These studies led to death of the mice within 2 weeks of daily subcutaneous injections of LIF. Studies using lower doses (5-20 micrograms per mouse) of hLIF, led to survival of most of the mice for over 20 days. Retro-orbital bleeds were performed on the first 3 days to determine platelet counts. In all mice subcutaneously injected daily with 1 microgram or more of hLIF, the platelet count rose in the first 3 days (26-60% increment on baseline pretreatment levels). In this study an amount of 20 μg of hLIF was chosen to be subcutaneously injected daily into SCID mice bearing Ewing's Sarcoma tumours.

[6] = test system: LIF receptors on Ewing sarcoma cell line Al5; assay: 125I-hLIF binding, Scatchard analysis, cloned line Al5; design: species or system human; settings: Al5 cells, 3 hrs on ice, Scatchard slope, read-out: Equilibrium dissociation constant
Procedure: A cloned Ewing sarcoma cell line Al5 (7×10^6 per point) in 100 μl of RPMI-medium containing 10 mM Hepes buffer pH 7.4 and 10% v/v foetal calf serum were incubated with increasing concentrations of ^125 I-hLIF (E. coli derived) (5000-800,000 cpm: 100,000 cpm/ng) with or without 5 μg/ml of unlabelled hLIF for 3 hrs on ice. The incubation mixture was then layered over 180 μl cold foetal calf serum, centrifuged at top speed in an Eppendoff microfuge for 10 sec and the tip of the tube containing the cell pellet cut with a scalpel blade and removed for counting in a gamma counter.

[7] = stimulus 100 ng, mean of duplicate colony counts
[8] = hLIF 20 μg per mouse daily s.c.

For “LIF: recombinant human leukaemia inhibitory factor (E. coli derived) from AMRAD Corporation Limited”, the Colonies/Cultures ([1]; stimulus 0.01 ng) was 47, the Colonies/Cultures ([1]; stimulus 0.1 ng) was 27 and the Colonies/Cultures ([1]; stimulus 1 ng) was 25. It also gave a Colonies/Cultures ([1]; stimulus 10 ng) of 18, a Colonies/Cultures [1, 7] of 2 and a Colonies/Cultures ([2]; stimulus 0.01 ng) of 222. For the same substance, the Colonies/Cultures ([2]; stimulus 0.1 ng) was 205, the Colonies/Cultures ([2]; stimulus 1 ng) was 160 and the Colonies/Cultures ([2]; stimulus 10 ng) was 10. The Colonies/Cultures [2, 7] was 8, the “Time until trend for smaller tumours was noticeable” value ([3]; after hLIF injections, 20 μg per mouse, in most cases) was ≤ 7 days and the “Survival of the majority of mice” value [3, 8] was “over 2 weeks”. The “Tumour size compared to PBS controls” value [3, 8] was “significantly reduced in size; also recorded: significantly smaller”, the “Survival range of tumour bearing mice” value ([3]; hLIF 20 μg per mouse daily s.c., eight mice) was 15 to 31 days and the “Histology of subcutaneous tumours” value [3] was “mainly composed of necrotic areas with only a small percentage of the tumour being made up of viable cells”. The “Histology of subcutaneous tumours” value ([3]; listed as human LIF) was “regressive, nectrotic tumour cells; also recorded: necrotic, regressive tumour cells”, the “Mitotic figures in tumours” value [3] was “almost no mitotic figures” and the “Mitotic figures in tumours” value ([3]; listed as human LIF) was “lack of mitotic figures”. The “Viable areas of tumours” value ([3]; hLIF treated, microscopic examination) was < 20%, the Colonies/Cultures ([4]; stimulus 0.01 ng) was 68 and the Colonies/Cultures ([4]; stimulus 0.1 ng) was 29. It also gave a Colonies/Cultures ([4]; stimulus 1 ng) of 23, a Colonies/Cultures ([4]; stimulus 10 ng) of 6 and a Colonies/Cultures [4, 7] of 3. The “Platelet count rise, increment on baseline pretreatment levels” value ([5]; 1 microgram or more daily subcutaneously, first 3 days) was 26-60%, the “Survival of most of the mice” value ([5]; 5-20 micrograms per mouse) was “over 20 days” and the “Time to death of the mice” value ([5]; 100 microgram per mouse, daily subcutaneous injections) was ≤ 2 weeks. For the same substance, the Kd [6] was 0.09 nM.
